Test results: PMC7465040, “Cytotoxic and Anti-Plasmodial Activities of Stephania dielsiana Y.C. Wu Extracts and the Isolated Compounds” (Molecules, 2020)
Like-named read-outs stand apart in the source and are kept apart here.

What was measured:
MDA-MB-468 = assay: SRB cell proliferation assay, MDA-MB-468; format: cell-based, human; settings: for IC50: Homo sapiens; for Selectivity index (SI) 184B5 versus MDA-MB-468 / Selectivity index (SI) MCF10A versus MDA-MB-468: Table 2B; for Selectivity index (SI) 184B5 versus MDA-MB-468: non-cancer 184B5 vs cancer MDA-MB-468; for Selectivity index (SI) MCF10A versus MDA-MB-468: non-cancer MCF10A vs cancer MDA-MB-468
Experimental: (§1) In vitro anticancer study: The in vitro anti-proliferative tests were carried out as described previously, using aliquots of the cell lines used therein. Briefly, HeLa, MDA-MB-231 and MDA-MB-468, MCF7, and 184B5 and MCF 10A cell lines were purchased from ATCC. The identity of the cell lines presented in this study were verified by short tandem repeat profiling by Genetica DNA Laboratories (www.celllineauthentication.com) (April 8, 2015). MCF10A was grown in DMEM F12 medium supplemented with 0.02 μg/mL epidermal growth factor, 10% FBS, 10 μg/mL insulin and […] hydrocortisone. MDA-MB-468 were grown in DMEM supplemented with 10% FBS and antibiotics cocktail (100 μg/mL streptomycin, 100 units/mL penicillin and 250 ng/mL amphotericin B). SRB cell proliferation assays were carried out as previously described, with some minor modifications. The concentration range for all tested cell lines were from 100–0.39 μg/mL for extracts and 100–0.39 μM for pure compounds. […] All experiments were carried out at least twice.

HeLa = assay: SRB cell proliferation assay, HeLa; format: cell-based, human; settings: for IC50: Homo sapiens, HeLa; for Selectivity index (SI) 184B5 versus HeLa / Selectivity index (SI) MCF10A versus HeLa: Table 2B; for Selectivity index (SI) 184B5 versus HeLa: non-cancer 184B5 vs cancer HeLa; for Selectivity index (SI) MCF10A versus HeLa: non-cancer MCF10A vs cancer HeLa
Experimental: as §1

MDA-MB-231 = assay: SRB cell proliferation assay, MDA-MB-231; format: cell-based, human; settings: for IC50: Homo sapiens; for Selectivity index (SI) 184B5 versus MDA-MB-231 / Selectivity index (SI) MCF10A versus MDA-MB-231: Table 2B; for Selectivity index (SI) 184B5 versus MDA-MB-231: non-cancer 184B5 vs cancer MDA-MB-231; for Selectivity index (SI) MCF10A versus MDA-MB-231: non-cancer MCF10A vs cancer MDA-MB-231
Experimental: as §1

[1] = test system: HeLa, MDA-MB231, MDA-MB-468, MCF7, 184B5 and MCF10A cell lines; assay: SRB cell proliferation assay, whole panel of cell lines; format: cell-based, human
Experimental: as §1

[2] = test system: chloroquine-susceptible 3D7 P. falciparum strain; assay: In vitro anti-plasmodial assay (HRP2 ELISA), 3D7; format: cell-based, Plasmodium falciparum; settings: for IC50: Plasmodium falciparum, 3D7, 72 h, read-out: IC50 (μM ± SD) 3D7; for SI 3D7 184B5 / SI 3D7 MCF10A: Table 3; for SI 3D7 184B5: selectivity index between 184B5 and parasites 3D7; for SI 3D7 MCF10A: selectivity index between MCF10A and parasites 3D7; for Selective index SI on 3D7 strain: vs 184B5 and MCF10A
Experimental: (§2) Parasites were grown in A-positive human blood (Etablissement Français du Sang, Marseille, France) under controlled atmospheric conditions that consisted of 10% O2, 5% CO2, and 85% N2 at 37 °C with a humidity of 95%.
(§3) In vitro anti-plasmodial assay: The two P. falciparum strains 3D7 and W2 were synchronized twice with sorbitol before use. The clonality of these strains was verified both in our laboratory and in an independent laboratory from the Worldwide Anti-malarial Resistance Network (WWARN) by PCR genotyping of the polymorphic genetic markers msp1 and msp2 and microsatellite loci. The compounds were re-suspended in methanol or DMSO 5% (v/v) and then diluted in methanol to obtain final concentrations ranging from 0.008 to 500 μg/mL (final concentration of 0.5% of methanol or DMSO). […] The plates were incubated for 72 h at 37 °C in controlled atmospheric conditions 5% CO2, 10% O2, and […]. After thawing the plates, haemolysed cultures were homogenized by vortexing the plates. Both the success of the drug susceptibility assay and the appropriate volume of haemolysed culture to use for each assay were determined for each clinical isolate during a preliminary HRP2 ELISA. Both the pre-test and subsequent ELISA assays were performed using a commercial kit (Malaria Ag Celisa, ref KM2159, Cellabs PTY LTD, Brookvale, Australia) according to the manufacturer’s recommendation. The optical density (OD) of each sample was measured with a spectrophotometer (Safire 2, Tecan, Lyon, France). […] The anti-plasmodial in vitro assay was performed five times for each product. The IC50 values represented the mean value calculated from five experiments. According to Hout, a selectivity index (SI) was based on the ratio between anti-parasitic and cytotoxic activities. In the case of our study, a SI was calculated between non-tumorigenic cell line 184B5 and parasites 3D7 or W2 and/or MCF10A and these two parasites.

MCF 10A = assay: SRB cell proliferation assay, MCF10A non-cancer cells; format: cell-based; settings: Homo sapiens
Experimental: as §1

[3] = test system: Plasmodium falciparum 3D7 and W2 strains; assay: In vitro anti-plasmodial assay, both strains; format: cell-based
Experimental: as §2, §3

MCF7 = assay: SRB cell proliferation assay, MCF7; format: cell-based, human; settings: for IC50: Homo sapiens; for Selectivity index (SI) 184B5 versus MCF7 / Selectivity index (SI) MCF10A versus MCF7: Table 2B; for Selectivity index (SI) 184B5 versus MCF7: non-cancer 184B5 vs cancer MCF7; for Selectivity index (SI) MCF10A versus MCF7: non-cancer MCF10A vs cancer MCF7
Experimental: as §1

[4] = test system: chloroquine-resistant W2 P. falciparum strain; assay: In vitro anti-plasmodial assay (HRP2 ELISA), W2; format: cell-based, Plasmodium falciparum; settings: for IC50: Plasmodium falciparum, W2, 72 h, read-out: IC50 (μM ± SD) W2; for SI W2 184B5 / SI W2 MCF10A: Table 3; for SI W2 184B5: selectivity index between 184B5 and parasites W2; for SI W2 MCF10A: selectivity index between MCF10A and parasites W2
Experimental: as §2, §3

184B5 = assay: SRB cell proliferation assay, 184B5 non-cancer cells; format: cell-based, human; settings: Homo sapiens
Experimental: as §1

[5] = MDA-MB-468, Table 2A, SRB, 72 h, read-out: IC50 (μM ± SD) MDA-MB-468
[6] = 72 h, Table 2A, SRB, 72 h, read-out: IC50 (μM ± SD) HeLa
[7] = MDA-MB-231, Table 2A, SRB, 72 h, read-out: IC50 (μM ± SD) MDA-MB-231
[8] = 72 h, HRP2 ELISA, mean of five experiments
[9] = Table 2A, SRB, 72 h, read-out: IC50 (μM ± SD) MCF 10A
[10] = Table 3, non-cancer cell line, read-out: IC50 (μM ± SD) MCF 10A
[11] = MCF7, Table 2A, SRB, 72 h, read-out: IC50 (μM ± SD) MCF7
[12] = 184B5, Table 2A, SRB, 72 h, read-out: IC50 (μM ± SD) 184B5
[13] = 184B5, Table 3, non-cancer cell line, read-out: IC50 (μM ± SD) 184B5

SMILES	IC50 (MDA-MB-468; [5]) [µM]	Selectivity index (SI) 184B5 versus MDA-MB-468 (MDA-MB-468)	Selectivity index (SI) MCF10A versus MDA-MB-468 (MDA-MB-468)	IC50 (HeLa; [6]) [µM]	Selectivity index (SI) 184B5 versus HeLa (HeLa)	Selectivity index (SI) MCF10A versus HeLa (HeLa)	IC50 (MDA-MB-231; [7]) [µM]	Selectivity index (SI) 184B5 versus MDA-MB-231 (MDA-MB-231)	Selectivity index (SI) MCF10A versus MDA-MB-231 (MDA-MB-231)	IC50 [2, 8] [µM]	SI 3D7 184B5 [2]	SI 3D7 MCF10A [2]	Selective index SI on 3D7 strain [2]	IC50 (MCF 10A; [9]) [µM]	IC50 (MCF 10A; [10]) [µM]	Anti-plasmodial activity against both 3D7 and W2 (in words) [3]	Selectivity index (SI) 184B5 versus MCF7 (MCF7)	Selectivity index (SI) MCF10A versus MCF7 (MCF7)	SI W2 184B5 [4]	SI W2 MCF10A [4]	other results
COc1ccc2c(c1OC)-c1c3c(cc4c1C(C2)N(C)CC4)OCO3 (stereo not drawn) [O-methylbulbocapine 5, O-methylbulbocapnine]	48.1 ± 1.69	1.52	1.24	70.4 ± 11.4	1.04	0.85	56.6 ± 9.08	1.29	1.05	2.81 ± 0.4	26.07	21.16	> 20	59.5 ± 1.9	59.5 ± 1.9	strong activity	1.86	1.51	12.83	10.42	IC50 ([1]; Homo sapiens, cancer and non-cancer cell lines, read-out: IC50 values, range over the cell lines examined): 39 to 73 µM; IC50 (MCF7; [11]): 39.4 ± 6.2 µM; IC50 [4, 8]: 5.71 ± 0.62 µM; IC50 (184B5; [12]): 73.26 ± 0.47 µM; IC50 (184B5; [13]): 73.26 ± 0.47 µM
CC(=O)O[C@H]1C(=O)[C@@]2(C)[C@H]([C@H](OC(=O)c3ccccc3)[C@]3(O)C[C@H](OC(=O)[C@H](O)[C@@H](NC(=O)c4ccccc4)c4ccccc4)C(C)=C1C3(C)C)[C@]1(OC(C)=O)CO[C@@H]1C[C@@H]2O [Paclitaxel, reference compound]		0.67	0.42		0.7	0.44		1.67	1.10								0.98	0.62			IC50 (MDA-MB-468; MDA-MB-468, Table 2A, paclitaxel in nM (footnote a), read-out: IC50 MDA-MB-468): 0.00396 ± 0.00032 µM; IC50 (HeLa; Table 2A, paclitaxel in nM (footnote a), read-out: IC50 HeLa): 0.00381 ± 0.00042 µM; IC50 (MDA-MB-231; MDA-MB-231, Table 2A, paclitaxel in nM (footnote a), read-out: IC50 MDA-MB-231): 0.00158 ± 0.00075 µM; IC50 (MCF 10A; Table 2A, paclitaxel in nM (footnote a), read-out: IC50 MCF 10A): 0.00167 ± 0.00021 µM; IC50 (MCF7; MCF7, Table 2A, paclitaxel in nM (footnote a), read-out: IC50 MCF7): 0.00271 ± 0.00111 µM; IC50 (184B5; 184B5, Table 2A, paclitaxel in nM (footnote a), read-out: IC50 184B5): 0.00265 ± 0.00191 µM
COc1cc2c(cc1OC)-c1cc3ccc(OC)c(OC)c3c[n+]1CC2 [Palmatine chloride 6, palmatine]	> 50			> 100			> 50			1.25 ± 0.28			> 20	> 50	> 50	strong activity			>15.67	>15.67	Anti-proliferative activity (in words) [1]: did not show any effect; IC50 (MCF7; [11]): > 50 µM; IC50 [4, 8]: 3.19 ± 0.64 µM; IC50 (184B5; [12]): > 50 µM; IC50 (184B5; [13]): > 50 µM
COc1cccc2c1C[C@@H]1c3c(cc4c(c3-2)OCO4)CCN1C [Stephanine 3, stephanine]		0.88	1.01		1.88	2.16		1.10	1.27		9.06	10.42					0.96	1.11	4.73	5.45	IC50 (MDA-MB-468; MDA-MB-468, 72 h, read-out: IC50 (μM ± SD) MDA-MB-468): 7.14 ± 2.11 µM; IC50 (HeLa; 72 h, read-out: IC50 (μM ± SD) HeLa): 3.33 ± 0.23 µM; IC50 (MDA-MB-231; MDA-MB-231, 72 h, read-out: IC50 (μM ± SD) MDA-MB-231): 5.66 ± 0.16 µM; Anti-plasmodial activity on 3D7 (in words) [2]: very effective; IC50 [2]: 0.69 ± 0.15 µM; IC50 (MCF 10A; 72 h, read-out: IC50 (μM ± SD) MCF 10A): 7.19 ± 0.33 µM; IC50 (MCF 10A; read-out: IC50 (μM ± SD) MCF 10A): 7.19 ± 0.33 µM; IC50 (MCF7; MCF7, 72 h, read-out: IC50 (μM ± SD) MCF7): 6.49 ± 0.43 µM; Anti-plasmodial activity on W2 (in words) [4]: not effective; IC50 [4]: 1.32 ± 0.38 µM; IC50 (184B5; 184B5, 72 h, read-out: IC50 (μM ± SD) 184B5): 6.25 ± 0.14 µM; IC50 (184B5; 184B5, read-out: IC50 (μM ± SD) 184B5): 6.25 ± 0.14 µM
